The text below walks through data of US20210069269A1, “METHOD FOR ALLEVIATING TOBACCO OR NICOTINE WITHDRAWAL SYMPTOMS” (DANSTAR FERMENT AG, priority 2018, published 2021).

This data set concerns C. elegans wild type strain N2. The data set is described as follows: C. elegans behavioral toxicity (thrashing/swimming) assay after 24 hours exposure to nicotine or tobacco extract with or without probiotic bacteria. Conditions: control worms with no bacteria, FIG. 1.

Protocol: Experiments were carried out with the wild type strain N2 of C. elegans. Worms were synchronized by isolating eggs from gravid adults, collecting the eggs in M9 buffer, hatching the eggs overnight in NGM plates and sterilely isolating L1-stage worms with M9 buffer. The L1-stage worms were transferred to NGM (Nematode Growth Medium) plates inoculated with Escherichia coli strain OP50 and incubated for four days at 15° C. to reach adulthood.
Similarly, a natural tobacco extract (ABT #6079, Advanced Biotech) was diluted in M9 buffer to a final concentration of 6.2 mM.
Adult worms were washed in M9 buffer and 250 μl of worm suspension was transferred to 24-well culture plates with or without nicotine (250 μl if present) or tobacco extract (250 μl if present) and with or without probiotic suspension (500 μl if present). The probiotic suspension was added first to the wells followed by the nicotine or the tobacco extract. At least 40 worms were present per well. The plates were incubated at 20° C. for 24 hours. After incubation period, worm suspension in each well was washed three times in M9 buffer (centrifugation of four minutes at 1000 rpm). The worms were transferred in new 24-well culture plates containing 1 ml of agar 1% in each well. The worms were allowed to equilibrate for 45 minutes, and then the thrashing (swimming) was recorded using a Leica EC3 camera. […]

For the compound `CN1CCCC1c1cccnc1.O.O.O=C(O)C(O)C(O)C(=O)O.O=C(O)C(O)C(O)C(=O)O` (stereo not shown) [nicotine, Nicotine ditartrate dihydrate], the “behavioral toxicity of the challenge agent to worms without bacteria” value was “induced a reversible paralysis”.
